{"source": "paper PMC11366520", "about": "“Purification of angiotensin converting enzyme inhibitory peptides and antihypertensive effect generated from Indonesian traditional fermented beef (Cangkuk)” (Animal Bioscience, 2024)", "key": {"[1]": {"biological_target": "T1, Angiotensin converting enzyme (from rabbit lung) (Oryctolagus cuniculus, UniProt P12822)", "T1 construct": "Angiotensin converting enzyme (from rabbit lung); purchased Sigma-Aldrich Co. (St. Louis, MO, USA); host or cells: rabbit lung (tissue-derived)", "T1 sequence (P12822 34-1310)": "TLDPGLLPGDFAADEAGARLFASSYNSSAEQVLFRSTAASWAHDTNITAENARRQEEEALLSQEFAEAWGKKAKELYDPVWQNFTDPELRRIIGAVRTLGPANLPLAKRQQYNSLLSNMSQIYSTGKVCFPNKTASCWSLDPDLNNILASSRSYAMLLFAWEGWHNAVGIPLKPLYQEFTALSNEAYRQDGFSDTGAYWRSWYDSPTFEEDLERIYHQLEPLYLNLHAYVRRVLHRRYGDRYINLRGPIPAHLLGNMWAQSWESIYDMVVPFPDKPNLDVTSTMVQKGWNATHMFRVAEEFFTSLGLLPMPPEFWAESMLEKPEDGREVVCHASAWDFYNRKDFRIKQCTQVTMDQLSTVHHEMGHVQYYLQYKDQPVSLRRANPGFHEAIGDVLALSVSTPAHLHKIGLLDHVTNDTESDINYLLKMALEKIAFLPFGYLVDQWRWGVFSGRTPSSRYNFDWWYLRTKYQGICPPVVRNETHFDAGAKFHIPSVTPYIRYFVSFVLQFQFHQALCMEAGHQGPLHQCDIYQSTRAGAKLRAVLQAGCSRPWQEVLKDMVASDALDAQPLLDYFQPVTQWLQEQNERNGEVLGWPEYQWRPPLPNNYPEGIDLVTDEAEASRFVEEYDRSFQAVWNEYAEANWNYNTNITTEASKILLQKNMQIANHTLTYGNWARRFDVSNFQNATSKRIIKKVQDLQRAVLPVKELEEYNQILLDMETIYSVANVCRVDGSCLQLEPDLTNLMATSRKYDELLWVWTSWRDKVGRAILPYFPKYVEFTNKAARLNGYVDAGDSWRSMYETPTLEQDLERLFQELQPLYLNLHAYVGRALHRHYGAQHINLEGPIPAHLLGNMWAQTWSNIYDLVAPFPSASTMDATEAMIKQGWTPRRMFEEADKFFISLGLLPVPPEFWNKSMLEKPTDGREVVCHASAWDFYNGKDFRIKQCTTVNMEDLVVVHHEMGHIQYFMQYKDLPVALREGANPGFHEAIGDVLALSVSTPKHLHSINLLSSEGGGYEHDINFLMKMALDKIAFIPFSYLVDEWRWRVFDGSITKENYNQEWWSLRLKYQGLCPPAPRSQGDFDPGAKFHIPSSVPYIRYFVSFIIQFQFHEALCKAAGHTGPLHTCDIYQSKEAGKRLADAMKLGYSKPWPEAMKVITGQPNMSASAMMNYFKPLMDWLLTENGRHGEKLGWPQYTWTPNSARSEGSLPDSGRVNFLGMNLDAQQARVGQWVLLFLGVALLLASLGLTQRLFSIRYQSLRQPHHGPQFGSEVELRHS", "test": "ACE-inhibitory activity, hippuric acid liberated from Hip-His-Leu (Cushman and Cheung, modified)", "type": "biochemical", "conditions": "synthetic peptides, purity 80%, sodium borate buffer pH 8.3, Hip-His-Leu 7.6 mM, NaCl 608 mM, pre-incubation 5 min, incubation 30 min, 37°C, 228 nm", "source_text": "The raw materials used in processing Cangkuk were fresh beef meat (brisket) from male Bali cattle, aged 2.5 to 3 years, purchased from the Animal Slaughtering House in Pekanbaru City. Green bamboo shoots were harvested from local farms. The additional ingredients were cooked rice, salt and distilled water. Angiotensin converting enzyme (from rabbit lung) and the substrate, hippuryl-L-histidyl-leucine, were purchased from Sigma-Aldrich Co. (St. Louis, MO, USA). All the chemicals and reagents used were of analytical grade.\nACE-inhibitory activity was analyzed according to the method of Cushman and Cheung with modifications by Arihara et al. This assay is based on liberation of hippuric acid from Hip-His-Leu catalyzed by ACE. A sample solution (15 μL) was mixed with 125 μL of a 100 mM sodium borate buffer (pH 8.3) containing 7.6 mM Hyp-Hys-Leu and 608 mM NaCl followed by pre-incubation for 5 min at 37°C. The reaction was initiated by adding 50 μL of ACE dissolved in distilled water, and the mixture was incubated for 30 min at 37°C. The reaction was stopped by adding 125 μL of 1 N HCl. […] Hippuric acid was dissolved with 1 mL of distilled water and its concentration spectrophotometrically determined at 228 nm. ACE inhibitory activity was calculated as: […]\nwhere A, absorbance of the sample reaction; B, absorbance of the blank; and C, absorbance of the control (distilled water)."}, "[2]": {"test_system": "ACE", "conditions": "cited from earlier work; for IC50: read-out: IC50 value (ACE inhibition)", "description": "According to a previous study, “Cangkuk” is made from fresh beef to which bamboo shoots, rice and salt are added. The treatment evaluated in the current research was addition of bamboo shoots with different preparation methods (chopped, ground, and extracted) and varied meat:bamboo shoot ratios (1:0.75, 1:1, and 1:1.25). Then, these preparations were fermented under anaerobic conditions at room temperature for seven days. It was reported that all treatments had ACE-inhibitory activities ranging from 43% to 80%. […] EAPLNPKANR, is a fragment of the 3rd to 12th amino acid sequence of LTEAPLNPKANREK [25]. […] The presence of hydrophobic amino acids such as isoleucine, valine, and glycine in the sequence has been associated with ACE-inhibitory activity."}, "[3]": {"test_system": "SHRs", "conditions": "cited from earlier work", "source_text": "Meat and meat products are excellent sources of ACE-inhibitory peptides. ACE-inhibitory peptides from animal proteins can be produced by several methods, including enzymatic hydrolysis and fermentation. […] The higher the dose, the greater the decrease in SBPs. […] There is strong association between ACE inhibition and the antihypertensive effects of a bioactive peptide owing to its structure, size, chain length, type and order of amino acids ... || (+ 1 further places)"}, "[4]": {"conditions": "pepsin hydrolyzed peptides from porcine skeletal myosin B; ref [9]; cited from earlier work", "source_text": "Meat and meat products are excellent sources of ACE-inhibitory peptides. ACE-inhibitory peptides from animal proteins can be produced by several methods, including enzymatic hydrolysis and fermentation. […] The pepsin hydrolyzed peptide Lys-Arg-Val-Ile-Gln-Try and the Val-Lys-Ala-Gly-Ph sequence from por ..."}}, "note": "Where two headings read alike, the source gives them in different places. Residues, ends and D or L forms follow the SMILES beside them. No end group written: not given here.", "data": [{"molecule": "CC[C@H](C)[C@H](N)C(=O)N[C@H](C(=O)NCC(=O)O)C(C)C", "note": "[IVG] (H-Ile-Val-Gly-OH)", "values": [{"measurement": "IC50", "setting": "[1]", "result": 97.3, "unit": "µM"}]}, {"molecule": "EAPLNPKANR [EAPLNPKANR]", "values": [{"measurement": "IC50", "setting": "[1]", "result": 44.6, "unit": "µM"}]}, {"molecule": "IKEVTER", "values": [{"measurement": "ACE-inhibitory activity (in words)", "setting": "[2]; peptide from venison treated with pepsin-trypsin-pancreatin, ref [28]", "result": "strong ACE-inhibitory activity"}]}, {"molecule": "IVDR [tetrapeptide from Paralichthys olivaceus surimi]", "values": [{"measurement": "ACE inhibitory activity (in words)", "setting": "[2]; tetrapeptide from Paralichthys olivaceus surimi, ref [31]", "result": "high ACE inhibitory activity"}, {"measurement": "decrease of blood pressure in SHRs (in words)", "setting": "[3]; 6 h after administration, ref [31]", "result": "could decrease blood pressure in SHRs 6 h after its administration"}]}, {"molecule": "IVGRPRHQG", "values": [{"measurement": "IC50", "setting": "[2]; nonapeptide from Katsuobusi, ref [26]", "result": 6.2, "unit": "µM"}]}, {"molecule": "LIVGIIRCV [nonapeptide from beef myofibrillar protein hydrolysate]", "values": [{"measurement": "antihypertensive effect in SHRs (in words)", "setting": "[3]; alkaline-AK-pepsin hydrolyzed peptide from beef myofibrillar protein, ref [8]", "result": "had an antihypertensive effect in SHRs"}]}, {"molecule": "LTEAPLNPKANREK", "values": [{"measurement": "IC50", "setting": "[2]; peptide from goat meat hydrolysate (pepsin, trypsin, chymotrypsin), ref [25]", "result": 120, "unit": "µM"}]}, {"molecule": "Lys-Arg-Val-Ile-Gln-Try [pepsin hydrolyzed peptide from porcine skeletal myosin B]", "values": [{"measurement": "antihypertensive effects in vivo (in words)", "setting": "[4]", "result": "showed antihypertensive effects in vivo"}]}, {"molecule": "Val-Lys-Ala-Gly-Ph", "values": [{"measurement": "antihypertensive effects in vivo (in words)", "setting": "[4]", "result": "showed antihypertensive effects in vivo"}]}, {"molecule": "WGAP", "values": [{"measurement": "reduction of SBP", "setting": "[3]; 100 mg/kg BW oral, SHRs, 4 h after administration, ref [33]", "result": "up to 42.6 mmHg"}]}]}
